Data reported in publication PMC6220303 (EMBO Molecular Medicine, 2018).
“And” between values parts separate entries of the source, which are not always exact repeats. Equal entries are not always repeated. “Also recorded” adds a separate entry of the source. Where two headings read alike, the source gives them in different places.

How the values were obtained:
[1] = Shelf life of the clinical capsule form; assay type: physicochemical; details: kept refrigerated
Ghrelin receptor (GHS) = Ghrelin receptor (GHS) (Homo sapiens, UniProt Q92847); test: Receptor panel binding; details: read-out: Inhibition at 10 µM
Sequence of Ghrelin receptor (GHS) (Q92847 whole entry): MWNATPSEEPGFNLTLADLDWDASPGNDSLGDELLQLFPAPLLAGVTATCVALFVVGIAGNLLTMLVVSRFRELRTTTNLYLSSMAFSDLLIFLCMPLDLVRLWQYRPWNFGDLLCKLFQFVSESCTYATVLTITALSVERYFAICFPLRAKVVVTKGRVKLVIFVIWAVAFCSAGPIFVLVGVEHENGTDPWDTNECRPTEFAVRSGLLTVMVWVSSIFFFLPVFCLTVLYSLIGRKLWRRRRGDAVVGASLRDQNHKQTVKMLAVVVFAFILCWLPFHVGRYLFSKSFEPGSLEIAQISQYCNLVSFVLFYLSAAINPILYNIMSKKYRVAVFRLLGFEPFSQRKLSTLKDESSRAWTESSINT
Experimental: Cellular Aβ release assays were done in CHO cells stably transfected with human wild‐type and human APP were done as described (Neumann et al, 2015). Determinations of logD, pKa, and binding to brain homogenates were done internally at Novartis, Basel. Plasma protein binding was determined by equilibrium dialysis using diluted plasma from the corresponding species. MDR‐1‐MDCK cells were obtained from Prof. A. Berns, Netherlands Cancer Institute, Amsterdam NL, and bi‐directional transport measurements were done as described (Rueeger et al, 2011). Receptor binding assays were done against an internal receptor panel and externally at Ricerca Biosciences, Peitou, Taiwan. In vitro binding and cellular patch clamp assays for hERG were done at Preclinical Safety, Novartis, Basel.

rats = test: Long-term toxicology studies in rats; assay type: in vivo, rat
Experimental: (§1) In vivo animal toxicity studies were performed according to ICH guidance for industry M3(R2) and conformed to the Institutional Animal Care and Use Guidelines for the contract laboratory and sponsor. […] Recovery was assessed after a 12‐week treatment‐free period. Beagle dogs from Marshall BKU UK, 11 months of age, were given 0 (vehicle), 5, 15, or 30 mg/kg/day for 39 weeks. Vehicle consisted of 0.5% (w/v) methylcellulose (1,500 cPS) in 0.1% (v/v) polysorbate 80 (Tween®‐80) in reverse osmosis water. At necropsy, tissues were immersion fixed in 10% neutral‐buffered formalin or modified Davidson's solution and then processed by routine methods to paraffin block and hematoxylin–eosin (H&E)‐stained histologic slides.

[2] = tested on: healthy participants ≥ 60 years; test: Adverse events after once-daily dosing over two weeks (Appendix Table S7); assay type: in vivo, human
Description: For further details, see the Appendix Table S10 in Appendix and the accompanying clinical protocols synopsis (Appendix Table S11).
Appendix Table S3. Overview of completed clinical studies with CNP520
Study description Population No. of Participants Dose/Frequency […]
First-in-human, randomized, 18-55 yrs 38 / 14 Single dose (10, 30, 90, […]
controlled, single and multiple CNP520 vs placebo) ascending oral dose study to Single dose (10, 90, 300,

[3] = Animal toxicology studies, any species; assay type: in vivo
Experimental: as §1

clinical = assay type: in vivo, human; details: for CSF Cmax: ≥ 60 years
Experimental: The lower limit of quantification (LLOQ) was 1 ng/ml in plasma and 2 ng/ml in urine and CSF, except for the 3‐month study where the method for CSF was more sensitive (LLOQ 0.1 ng/ml). Plasma PK parameters were calculated using actual recorded sampling times and non‐compartmental methods with Phoenix WinNonlin version 6.4 (Certara, Inc., Princeton, NJ, USA). […]

APP23 mice = details: APP23, mouse, in vivo, 3 months

## C[C@@]1(c2nc(NC(=O)c3ncc(C(F)(F)F)cc3Cl)ccc2F)CO[C@@](C)(C(F)(F)F)C(N)=N1 [CNP520]
[1]
  shelf life of the capsule form: 24 months
Ghrelin receptor (GHS)
  inhibition at 10 µM: 79%
rats; female rats
  dose with delayed ovulation and slightly reduced fecundity and fertility indices: ≥ 30 mg/kg/day
  safety margin: exposure at NOAEL vs exposure at 85 mg in Phase IIa: ≥ 7 fold
rats; female rats at ≥ 30 mg/kg/day, 90% in control animals
  fecundity and fertility indices: 74%
rats; male rats
  safety margin: exposure at NOAEL vs exposure at 85 mg in Phase IIa: ≥ 5 fold
rats; male rats, long-term toxicology
  dose with adverse (CNS/clinical) effects: ≥ 500 mg/kg/day
[2]; 10 mg once daily, N = 9
  AE incidence: Respiratory, thoracic and mediastinal disorders: 1 (11.1) n (%)
  Participants with any AE(s): 6 (66.7) n (%)
[2]; 30 mg once daily, N = 9
  AE incidence: Renal and urinary disorders: 0 (0.0) n (%)
[2]; 300 mg once daily, N = 8
  AE incidence: Ear and labyrinth disorders: 0 (0.0) n (%)
[3]; any species
  morphological changes in CNS, peripheral nervous system, liver, endocrine pancreas, retina, skin: No morphological changes were identified
[3]; including 9 months dosing in dogs
  depigmentation in long-term animal toxicology studies: no signs of depigmentation; also recorded: did not result in hair depigmentation
[3]; long-term toxicological studies in rats and dogs
  retinal degeneration: no retinal degeneration
clinical; 10 mg q.d., 2 weeks, LLOQ 2 ng/ml in CSF
  CSF conc 24h after dose Day 14: < LLOQ
clinical; both sexes, human, CSF, oral, 2 mg q.d., 3 month study, mean (CV %), read-out: CSF conc 24h after dose Day 91
  concentration at 24 h: 0.305 ng/mL
clinical; both sexes, human, CSF, oral, 10 mg q.d., 3 month study, mean (CV %), read-out: CSF conc 24h after dose Day 91
  concentration at 24 h: 1.44 ng/mL
clinical; both sexes, human, CSF, oral, 30 mg q.d., 2 weeks, mean (CV %), read-out: CSF conc 24h after dose Day 14
  concentration at 24 h: 3.33 ng/mL
clinical; both sexes, human, CSF, oral, 35 mg q.d., 3 month study, mean (CV %), read-out: CSF conc 24h after dose Day 91
  concentration at 24 h: 4.52 ng/mL
clinical; both sexes, human, CSF, oral, 85 mg q.d., 3 month study, mean (CV %), read-out: CSF conc 24h after dose Day 91
  concentration at 24 h: 10.4 ng/mL
clinical; both sexes, human, CSF, oral, 90 mg q.d., 2 weeks, mean (CV %), read-out: CSF conc 24h after dose Day 14
  concentration at 24 h: 9.48 ng/mL
clinical; both sexes, human, CSF, oral, 300 mg q.d., 2 weeks, mean (CV %), read-out: CSF conc 24h after dose Day 14
  concentration at 24 h: 29.8 ng/mL
clinical; both sexes, human, CSF, oral, single dose of 750 mg, read-out: CSF mean C max
  Cmax: 39.7 nM
clinical; single dose 10 mg, LLOQ 2 ng/ml in CSF
  CSF Cmax: < LLOQ
clinical; single dose 90 mg, mean (CV %)
  CSF Cmax: 3.33 ( 65.2 ) ng/ml
clinical; single dose 300 mg, mean (CV %)
  CSF Cmax: 10.5 (49.1) ng/ml
clinical; single dose 750 mg, mean (CV %)
  CSF Cmax: 20.4 (44.8) ng/ml and 20.4 ng/ml
APP23 mice
  Hemorrhage (H & E staining) % affected: 7%
  Hemorrhage (H & E staining) Grade 1, number of animals affected: 1
  Hemorrhage (H & E staining) Grade 2, number of animals affected: 0
  Hemosiderin (Perl’s staining) % affected: 47%
  Hemosiderin (Perl’s staining) Grade 1, number of animals affected: 7
  Hemosiderin (Perl’s staining) Grade 2, number of animals affected: 0
